From patent publication US9902736B2, “1-oxo/acylation-14-acylated oridonin derivative, preparation method therefor and application thereof” (HANGZHOU BENSHENG PHARMACEUTICAL CO., LTD., priority 2012, dated 2018)
≈ marks a conversion by molar mass, not a printed value. Like-named read-outs stand apart in the source and are kept apart here.

Key:
CNE = assay: Solid tumor cell growth inhibition, MTT, 72 h; format: cell-based, human; settings: for IC50 / IC90: Homo sapiens, CNE, 72 h, MTT
Summary of the method: (§1)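 Viability was read by MTT after 72 hours' exposure to varied concentrations of oridonin derivatives at 37° C, 5% CO2. Beforehand, 6000 cells per well were preincubated 24 hours in DMEM high glucose containing 10% fetal bovine serum.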

Hela = assay: Solid tumor cell growth inhibition, MTT, 72 h; format: cell-based, human; settings: for IC50 / IC90: Homo sapiens, HeLa, 72 h, MTT
Summary of the method: as §1

MGC-803 = assay: Solid tumor cell growth inhibition, MTT, 72 h; format: cell-based, human; settings: for IC50 / IC90: Homo sapiens, MGC-803, 72 h, MTT; for anti-MGC-803 activity increased: in comparison with oridonin
Summary of the method: as §1

Hep-2 = assay: Solid tumor cell growth inhibition, MTT, 72 h; format: cell-based, human; settings: for IC50 / IC90: Homo sapiens, HEp-2, 72 h, MTT; for anti-Hep-2 activity increased: in comparison with oridonin
Summary of the method: as §1

PANC-1 = assay: Solid tumor cell growth inhibition, MTT, 72 h; format: cell-based; settings: Homo sapiens
Summary of the method: as §1

U87-MG = assay: Solid tumor cell growth inhibition, MTT, 72 h; format: cell-based; settings: Homo sapiens, U-87 MG
Summary of the method: as §1

Hep G2 = assay: Solid tumor cell growth inhibition, MTT, 72 h; format: cell-based; settings: Homo sapiens, HepG2
Summary of the method: as §1

SK-OV-3 = assay: Solid tumor cell growth inhibition, MTT, 72 h; format: cell-based; settings: Homo sapiens; for IC50: read-out: IC50 SK-OV-3; for IC90: read-out: IC90 SK-OV-3
Summary of the method: as §1

CaEs-17 = assay: Solid tumor cell growth inhibition, MTT, 72 h; format: cell-based; settings: Homo sapiens, CaEs17
Summary of the method: as §1

MG-63 = assay: Solid tumor cell growth inhibition, MTT, 72 h; format: cell-based; settings: Homo sapiens
Summary of the method: as §1

Becap-37 = assay: Solid tumor cell growth inhibition, MTT, 72 h; format: cell-based; settings: Homo sapiens
Summary of the method: as §1

PC-3 = assay: Solid tumor cell growth inhibition, MTT, 72 h; format: cell-based; settings: Homo sapiens
Summary of the method: as §1

RKO = assay: Solid tumor cell growth inhibition, MTT, 72 h; format: cell-based; settings: Homo sapiens
Summary of the method: as §1

A549 = assay: Solid tumor cell growth inhibition, MTT, 72 h; format: cell-based; settings: Homo sapiens
Summary of the method: as §1

Kasumi-1 = assay: Leukemia cell growth inhibition, MTT, 72 h; format: cell-based; settings: Homo sapiens
Summary of the method: (§2)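 Growth inhibition was scored by MTT after 72 h exposure to a concentration range of oridonin derivatives (37° C, 5% CO2). Compound went on the day after seeding 6000 cells per well of K562/ADR, H9, Jurkat or Kasumi-1.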

K562/ADR = assay: Leukemia cell growth inhibition, MTT, 72 h; format: cell-based; settings: Homo sapiens
Summary of the method: as §2

NB4 = assay: Leukemia cell growth inhibition, MTT, 72 h; format: cell-based, human; settings: for IC50 / IC90: Homo sapiens, NB-4, 72 h, MTT
Summary of the method: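 Viability determined by MTT following a 72-hour, 37° C, 5% CO2 incubation with test compounds at different concentrations, added the day after seeding 6000 cells per well.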

Jurkat = assay: Leukemia cell growth inhibition, MTT, 72 h; format: cell-based, human; settings: Homo sapiens, Jurkat; 72 h, MTT
Summary of the method: as §2

H9 = assay: Leukemia cell growth inhibition, MTT, 72 h; format: cell-based, human; settings: for IC50 / IC90: Homo sapiens, H9, 72 h, MTT
Summary of the method: as §2

RPMI 8226 = assay: Multiple myeloma cell growth inhibition, MTT, 72 h; format: cell-based; settings: Homo sapiens
Summary of the method: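 Growth inhibition by MTT after 72 h drug exposure (37 °C, 5% CO2) over a concentration range of oridonin derivatives. RPMI 8226 cells plated at 6000 per well and dosed the following day.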

## C=C1C(=O)[C@]23[C@H](OC(=O)c4ccc(C)cc4)[C@H]1CC[C@H]2[C@@]12CO[C@@]3(O)[C@@H](O)[C@@H]1C(C)(C)CCC2OC(C)=O (stereo partly shown) [BS-OR-090]
CNE
  IC50: 0.98 µg/mL (≈ 1.87 µM)
  IC90: 4.59 µg/mL (≈ 8.75 µM)
CNE; in comparison with oridonin
  anti-CNE activity increased: ~6 fold
Hela
  IC50: 0.96 µg/mL (≈ 1.83 µM)
  IC90: 3.67 µg/mL (≈ 7 µM)
Hela; in comparison with oridonin
  anti-Hela activity increased: more than 5 fold
MGC-803
  IC50: 0.52 µg/mL (≈ 0.991 µM)
  IC90: 6.3 µg/mL (≈ 12 µM)
  anti-MGC-803 activity increased: ~10 fold
Hep-2
  IC50: 0.96 µg/mL (≈ 1.83 µM)
  IC90: 5.71 µg/mL (≈ 10.9 µM)
  anti-Hep-2 activity increased: ~5 fold
PANC-1
  IC50: 1.31 µg/mL (≈ 2.5 µM)
  IC90: 4.41 µg/mL (≈ 8.41 µM)
U87-MG
  IC50: 0.51 µg/mL (≈ 0.972 µM)
  IC90: 1.67 µg/mL (≈ 3.18 µM)
Hep G2
  IC50: 0.74 µg/mL (≈ 1.41 µM)
  IC90: 7.09 µg/mL (≈ 13.5 µM)
SK-OV-3; SK-OV-3, 72 h
  IC50: 1.35 µg/mL (≈ 2.57 µM)
  IC90: 5.37 µg/mL (≈ 10.2 µM)
CaEs-17
  IC50: 0.9 µg/mL (≈ 1.72 µM)
  IC90: 3.65 µg/mL (≈ 6.96 µM)
MG-63
  IC50: 0.36 µg/mL (≈ 0.686 µM)
  IC90: 0.92 µg/mL (≈ 1.75 µM)
Becap-37
  IC50: 0.99 µg/mL (≈ 1.89 µM)
  IC90: 3.01 µg/mL (≈ 5.74 µM)
PC-3
  IC50: 1.35 µg/mL (≈ 2.57 µM)
  IC90: 5.37 µg/mL (≈ 10.2 µM)
RKO
  IC50: 0.35 µg/mL (≈ 0.667 µM)
  IC90: 0.88 µg/mL (≈ 1.68 µM)
A549
  IC50: 1.82 µg/mL (≈ 3.47 µM)
  IC90: 6.27 µg/mL (≈ 12 µM)
Kasumi-1
  IC50: 0.37 µg/mL (≈ 0.705 µM)
  IC90: 1.3 µg/mL (≈ 2.48 µM)
K562/ADR
  IC50: 0.36 µg/mL (≈ 0.686 µM)
  IC90: 1.48 µg/mL (≈ 2.82 µM)
NB4
  IC50: 0.05 µg/mL (≈ 0.0953 µM)
  IC90: 0.94 µg/mL (≈ 1.79 µM)
NB4; as compared with oridonin
  anti-NB4 cell line activity increased: 15 fold
Jurkat
  IC50: 0.4 µg/mL (≈ 0.762 µM)
  IC90: 2.62 µg/mL (≈ 4.99 µM)
H9
  IC50: 0.06 µg/mL (≈ 0.114 µM)
  IC90: 0.37 µg/mL (≈ 0.705 µM)
H9; as compared with oridonin
  anti-H9 cell line activity increased: 22 fold
RPMI 8226
  IC50: 0.2 µg/mL (≈ 0.381 µM)
  IC90: 1.61 µg/mL (≈ 3.07 µM)

## C=C1C(=O)[C@]23[C@H](OC(=O)c4ccc(OC)cc4)[C@H]1CC[C@H]2[C@@]12CO[C@@]3(O)[C@@H](O)[C@@H]1C(C)(C)CCC2OC(C)=O (stereo partly shown) [BS-OR-091]
CNE
  IC50: 1.18 µg/mL (≈ 2.18 µM)
  IC90: 4.52 µg/mL (≈ 8.36 µM)
Hela
  IC50: 1.28 µg/mL (≈ 2.37 µM)
  IC90: 3.51 µg/mL (≈ 6.49 µM)
MGC-803
  IC50: 0.59 µg/mL (≈ 1.09 µM)
  IC90: 5.7 µg/mL (≈ 10.5 µM)
  anti-MGC-803 activity increased: ~10 fold
Hep-2
  IC50: 0.96 µg/mL (≈ 1.78 µM)
  IC90: 6.65 µg/mL (≈ 12.3 µM)
  anti-Hep-2 activity increased: ~5 fold
PANC-1
  IC50: 1.69 µg/mL (≈ 3.13 µM)
  IC90: 5.65 µg/mL (≈ 10.5 µM)
U87-MG
  IC50: 0.67 µg/mL (≈ 1.24 µM)
  IC90: 1.98 µg/mL (≈ 3.66 µM)
Hep G2
  IC50: 1.4 µg/mL (≈ 2.59 µM)
  IC90: 6.28 µg/mL (≈ 11.6 µM)
SK-OV-3; SK-OV-3, 72 h, MTT
  IC50: 1.75 µg/mL (≈ 3.24 µM)
  IC90: 4.71 µg/mL (≈ 8.71 µM)
CaEs-17
  IC50: 0.99 µg/mL (≈ 1.83 µM)
  IC90: 4.83 µg/mL (≈ 8.93 µM)
MG-63
  IC50: 0.49 µg/mL (≈ 0.906 µM)
  IC90: 1.46 µg/mL (≈ 2.7 µM)
Becap-37
  IC50: 1.26 µg/mL (≈ 2.33 µM)
  IC90: 2.48 µg/mL (≈ 4.59 µM)
PC-3
  IC50: 1.75 µg/mL (≈ 3.24 µM)
  IC90: 4.71 µg/mL (≈ 8.71 µM)
RKO
  IC50: 0.41 µg/mL (≈ 0.758 µM)
  IC90: 0.93 µg/mL (≈ 1.72 µM)
A549
  IC50: 2.38 µg/mL (≈ 4.4 µM)
  IC90: 7.54 µg/mL (≈ 13.9 µM)
Kasumi-1
  IC50: 0.52 µg/mL (≈ 0.962 µM)
  IC90: 1.22 µg/mL (≈ 2.26 µM)
K562/ADR
  IC50: 0.45 µg/mL (≈ 0.832 µM)
  IC90: 1.72 µg/mL (≈ 3.18 µM)
NB4
  IC50: 0.13 µg/mL (≈ 0.24 µM)
  IC90: 0.73 µg/mL (≈ 1.35 µM)
Jurkat
  IC50: 0.55 µg/mL (≈ 1.02 µM)
  IC90: 2.31 µg/mL (≈ 4.27 µM)
H9
  IC50: 0.14 µg/mL (≈ 0.259 µM)
  IC90: 0.46 µg/mL (≈ 0.851 µM)
RPMI 8226
  IC50: 0.37 µg/mL (≈ 0.684 µM)
  IC90: 1.8 µg/mL (≈ 3.33 µM)
